Measurements reported in paper PMC10683028 (Journal of Medicinal Chemistry, 2023).
≈ marks a conversion by molar mass, not a printed value. Where two headings read alike, the source gives them in different places.

Columns and labels:
[1] = pH 7.4
Method: Test compounds were prepared as 0.5 mM solutions in 50:50 acetonitrile:water and analyzed by reversed-phase HPLC-UV (wavelength 254 nm) using a Phenomenex Luna C18 100 Å 150 × 4.6 mm 5 μm column with a gradient of aqueous phase (50 mM ammonium acetate, pH 7.4) and mobile phase (acetonitrile) as described.[41],[42]

[2] = mouse
Method: Murine pharmacokinetic studies were performed exactly as reported.[40]

[3] = physchem; conditions: aqueous medium at pH 7.4, pH 7.4
Method: (§1) In vitro ADME experiments were performed exactly as reported.[38]−[40]

[4] = in vitro; conditions: PAMPA, pH 7.4
Method: as §1

| SMILES | CHI-logDpH7.4 [1] | solubility [3] | Papp [4] | further results |
| --- | --- | --- | --- | --- |
| COc1ccc(-c2noc(C(=O)NCCc3ccc(C(=O)N4CC(OC)C4)cc3)n2)cc1OC [compound 15, 3-(3,4-Dimethoxyphenyl)-N-(4-(3-methoxyazetidine-1-carbonyl)phenethyl)-1,2,4-oxadiazole-5-carboxamide] | 2.1 | – | – | AUC0–480 ([2]; IV 3 mg/kg): 56 µg·min/mL; T1/2 ([2]; IV 3 mg/kg): 18 min; Vdss ([2]; IV 3 mg/kg): 1.1 L/kg; AUC0–480 ([2]; PO 200 mg/kg): 48 µg·min/mL; Cmax ([2]; PO 200 mg/kg): 151 ng/mL; F ([2]; PO 200 mg/kg): 1.5%; Tmax ([2]; PO 200 mg/kg): 120 min |
| COc1ccc(-c2noc(C(=O)NCCc3ccc(C(=O)N4CC5(COC5)C4)cc3)n2)cc1OC [compound 18, N-(4-(2-Oxa-6-azaspiro[3.3]heptane-6-carbonyl)phenethyl)-3-(3,4-dimethoxyphenyl)-1,2,4-oxadiazole-5-carboxamide] | 1.8 | 12 µM (≈ 5.74 µg/mL) | 2.6 ×10⁻⁶ cm/s | – |
| COc1ccc(-c2noc(C(=O)NC(C#N)Cc3ccc(C(=O)N4CC(OC)C4)cc3)n2)cc1OC (stereo not shown) [compound 34, N-(1-Cyano-2-(4-(3-methoxyazetidine-1-carbonyl)phenyl)ethyl)-3-(3,4-dimethoxyphenyl)-1,2,4-oxadiazole-5-carboxamide] | 2.2 | 164 µM (≈ 80.6 µg/mL) | 1.5 ×10⁻⁶ cm/s | – |
| COc1ccc(-c2noc(C(=O)NC(C#N)Cc3ccc(C(=O)N4CC5(COC5)C4)cc3)n2)cc1OC (stereo not shown) [compound 44, N-(2-(4-(2-Oxa-6-azaspiro[3.3]heptane-6-carbonyl)phenyl)-1-cyanoethyl)-3-(3,4-dimethoxyphenyl)-1,2,4-oxadiazole-5-carboxamide] | 2.1 | – | 0.6 ×10⁻⁶ cm/s | AUC0–480 ([2]; PO 10 mg/kg): 5 µg·min/mL; Cmax ([2]; PO 10 mg/kg): 56 ng/mL; Tmax ([2]; PO 10 mg/kg): 300 min |
| COc1ccc(-c2noc(C(=O)NC(C#N)Cc3ccc(C(=O)N4CC(OC)C4)cc3)n2)cc1OCC1(O)CC1 (stereo not shown) [compound 45, N-[1-Cyano-2-[4-(3-methoxyazetidine-1-carbonyl)phenyl]ethyl]-3-[3-[(1-hydroxycyclopropyl)methoxy]-4-methoxyphenyl]-1,2,4-oxadiazole-5-carboxamide] | – | 152 µM (≈ 83.2 µg/mL) | – | – |
| O=C(NCCc1ccc(C(=O)N2CCC2)cc1)c1nc(-c2ccc3cn[nH]c3c2)no1 [compound 66, N-(4-(Azetidine-1-carbonyl)phenethyl)-3-(1H-indazol-6-yl)-1,2,4-oxadiazole-5-carboxamide] | 1.6 | – | 5.5 ×10⁻⁶ cm/s | – |
| COc1cccc(-c2noc(C(=O)NCCc3ccc(C(=O)N4CCC4)cc3)n2)c1 [compound 67, N-(4-(Azetidine-1-carbonyl)phenethyl)-3-(3-methoxyphenyl)-1,2,4-oxadiazole-5-carboxamide] | 2.4 | – | 10.1 ×10⁻⁶ cm/s | – |
| COc1ccc(-c2noc(C(=O)NCCc3ccc(C(=O)N4CC(OC)C4)cc3)n2)cc1OCC1CC1 [compound 77, 3-[3-(Cyclopropylmethoxy)-4-methoxyphenyl]-N-[2-[4-(3-methoxyazetidine-1-carbonyl)phenyl]ethyl]-1,2,4-oxadiazole-5-carboxamide] | 2.9 | 2 µM (≈ 1.01 µg/mL) | 3.6 ×10⁻⁶ cm/s | – |
| COc1ccc(-c2noc(C(=O)NCCc3ccc(C(=O)N4CC(OC)C4)cc3)n2)cc1OC1CC1 [compound 79, 3-(3-Cyclopropoxy-4-methoxyphenyl)-N-(4-(3-methoxyazetidine-1-carbonyl)phenethyl)-1,2,4-oxadiazole-5-carboxamide] | 2.6 | – | 4.6 ×10⁻⁶ cm/s | – |
| COc1ccc(-c2noc(C(=O)NCCc3ccc(C(=O)N4CC(OC)C4)cc3)n2)cc1OCC1(O)CC1 [compound 80, 3-(3-((1-Hydroxycyclopropyl)methoxy)-4-methoxyphenyl)-N-(4-(3-methoxyazetidine-1-carbonyl)phenethyl)-1,2,4-oxadiazole-5-carboxamide] | – | – | – | AUC0–480 ([2]; IV 3 mg/kg): 81 µg·min/mL; T1/2 ([2]; IV 3 mg/kg): 24 min; Vdss ([2]; IV 3 mg/kg): 0.9 L/kg; AUC0–480 ([2]; PO 10 mg/kg): 4 µg·min/mL; Cmax ([2]; PO 10 mg/kg): 61 ng/mL; F ([2]; PO 10 mg/kg): 1.5%; Tmax ([2]; PO 10 mg/kg): 30 min |
| COc1ccc(-c2nnc(C(=O)NCCc3ccc(C(=O)N4CC(OC)C4)cc3)o2)cc1OC [compound 104, 5-(3,4-Dimethoxyphenyl)-N-(4-(3-methoxyazetidine-1-carbonyl)phenethyl)-1,3,4-oxadiazole-2-carboxamide] | 1.7 | 11 µM (≈ 5.13 µg/mL) | 0.8 ×10⁻⁶ cm/s | – |
| COc1ccc(-c2noc(C(=O)NCCc3ccccc3)n2)cc1OC [compound 106] | – | 51 µM (≈ 18 µg/mL) | – | – |
